Key:
[1] = biological target: farnesyl protein transferase (Homo sapiens, UniProt P49354+P49356); assay: In vitro assay for inhibition of farnesyl protein transferase; type: biochemical; settings: negative log value of the IC50-value; IC50 = concentration needed to reduce the product of the enzymatic reaction to 50% of the control; read-out: Enzyme activity pIC50 (converted)
Procedure: An in vitro assay for inhibition of farnesyl transferase was performed essentially as described in WO 98/40383, pages 33-34. When appropriate, IC50-values (concentration of the drug, needed to reduce the product of the enzymatic reaction, to 50% of the conrol) were computed using probit analysis for graded data (Finney, D. J., Probit Analuses, 2nd Ed. Chapter 10, Graded Responses, Cambridge Univerity Press, Cambridge 1962). Herein (see table F-3) the effects of test compounds are expressed as pIC50 (the negative log value of the IC50-value). Also the intermediate compounds described in the table F-1 show activity in the in vitro assay for inhibition of farnesyl protein transferase.

| SMILES | melting point [°C] | IC50 [1] [nM] |
| --- | --- | --- |
| Cn1cnnc1C(O)(c1ccc(Cl)cc1)c1cc2c3c(c1)c(-c1cccc(Cl)c1)cc(=O)n3CCC2 (stereo not shown) [Compound 3, 7-(3-chlorophenyl)-9-[(4-chlorophenyl)hydroxy(4-methyl-4H-1,2,4-triazol-3-yl)methyl]-2,3-dihydro-1H,5H-benzo[ij]quinolizin-5-one] | 183 | 8.18 |
| COC(c1ccc(Cl)cc1)(c1cc2c3c(c1)c(-c1cccc(Cl)c1)cc(=O)n3CCC2)c1nncn1C (stereo not shown) [Compound 6, 7-(3-chlorophenyl)-9-[(4-chlorophenyl)methoxy(4-methyl-4H-1,2,4-triazol-3-yl)methyl]-2,3-dihydro-1H,5H-benzo[ij]quinolizin-5-one] | 132 | < 100 |
| Cn1cnnc1C(OCCO)(c1ccc(F)cc1)c1cc2c3c(c1)c(-c1cccc(Cl)c1)cc(=O)n3CC2 (stereo not shown) [Compound 7, 6-(3-chlorophenyl)-8-[(4-fluorophenyl)(2-hydroxyethoxy)(4-methyl-4H-1,2,4-triazol-3-yl)methyl]-1,2-dihydro-4H-pyrrolo[3,2,1-ij]quinolin-4-one] | 138 | 3.95 |
| Cn1cnnc1C(c1ccc(F)cc1)(c1cc2c3c(c1)c(-c1cccc(Cl)c1)cc(=O)n3CC2)n1ccnc1 (stereo not shown) [Compound 8, 6-(3-chlorophenyl)-8-[(4-fluorophenyl)-1H-imidazol-1-yl(4-methyl-4H-1,2,4-triazol-3-yl)methyl]-1,2-dibydro-4H-pyrrolo[3,2,1-ij]quinolin-4-one] |  | 3.84 |
| Cn1cnnc1C(O)(c1ccc(Cl)cc1)c1cc2c3c(c1)c(-c1ccc(Cl)cc1)cc(=O)n3CC2 (stereo not shown) [Compound 11] |  | < 100 |
| Cn1cnnc1C(O)(c1ccc(Cl)cc1)c1cc2c3c(c1)c(-c1cccc(Cl)c1)c(Br)c(=O)n3CC2 (stereo not shown) [Compound 12] |  | > 100 |
| Cn1cnnc1C(O)(c1ccc(Br)cc1)c1cc2c3c(c1)c(-c1cccc(Br)c1)cc(=O)n3CC2 (stereo not shown) [Compound 13] |  | 5.86 |

More lines, now with the values ahead:

| melting point [°C] | IC50 [1] [nM] | SMILES |
| --- | --- | --- |
| 194 |  | Cn1cnnc1C(c1ccc(I)cc1)c1cc2c3c(c1)c(-c1cccc(Cl)c1)cc(=O)n3CC2 (stereo not shown) (hydrate or solvate) [Compound 1, 6-(3-chlorophenyl)-1,2-dihydro-8-[(4-iodophenyl)(4-methyl-4H-1,2,4-triazol-3-yl)methyl]-4H-pyrrolo[3,2,1-ij]quinolin-4-one] |
|  | 21.4 | Cn1cnnc1C(c1ccc(I)cc1)c1cc2c3c(c1)c(-c1cccc(Cl)c1)cc(=O)n3CC2 (stereo not shown) [Compound 1, 6-(3-chlorophenyl)-1,2-dihydro-8-[(4-iodophenyl)(4-methyl-4H-1,2,4-triazol-3-yl)methyl]-4H-pyrrolo[3,2,1-ij]quinolin-4-one] |
| 174 | 2.02 | Cn1cnnc1C(c1ccc(C#N)cc1)c1cc2c3c(c1)c(-c1cccc(Cl)c1)cc(=O)n3CC2 (stereo not shown) [Compound 2, 4-[[6-(3-chlorophenyl)-1,2-dihydro-4-oxo-4H-pyrrolo[3,2,1-ij]quinolin-8-yl](4-methyl-4H-1,2,4-triazol-3-yl)methyl]-benzonitrile] |
|  | 5.77 | Cn1cnnc1C(O)(c1ccc(F)cc1)c1cc2c3c(c1)c(-c1cccc(Cl)c1)cc(=O)n3CC2 (stereo not shown) [Compound 4, 6-(3-chlorophenyl)-8-[(4-fluorophenyl)hydroxy(4-methyl-4H-1,2,4-triazol-3-yl)methyl]-1,2-dihydro-4H-pyrrolo[3,2,1-ij]quinolin-4-one] |
| 196 | 3.4 | CC(=O)NC(c1ccc(F)cc1)(c1cc2c3c(c1)c(-c1cccc(Cl)c1)cc(=O)n3CC2)c1nncn1C (stereo not shown) [Compound 5, N-[[6-(3-chlorophenyl)-1,2-dihydro-4-oxo-4H-pyrrolo[3,2,1-ij]quinolin-8-yl](4-fluorophenyl)(4-methyl-4H-1,2,4-triazol-3-yl)methyl]-acetamide] |
|  | 2.98 | Cn1cnnc1C(N)(c1ccc(F)cc1)c1cc2c3c(c1)c(-c1cccc(Cl)c1)cc(=O)n3CC2 (stereo not shown) [Compound 9, 8-[amino(4-fluorophenyl)(4-methyl-4H-1,2,4-triazol-3-yl)methyl]-6-(3-chlorophenyl)-1,2-dihydro-4H-pyrrolo[3,2,1-ij]quinolin-4-one] |
|  | 29.3 | COC(c1ccc(F)cc1)(c1cc2c3c(c1)c(-c1cccc(Cl)c1)cc(=O)n3CC2)c1nncn1C (stereo not shown) [Compound 10, 6-(3-chlorophenyl)-8-[(4-fluorophenyl)methoxy(4-methyl-4H-1,2,4-triazol-3-yl)methyl]-1,2-dihydro-4H-pyrrolo[3,2,1-ij]quinolin-4-one] |

— US7408063B2, “1,8-annelated quinoline derivatives substituted with carbon-linked triazoles as farnesyl transferase inhibitors” (Janssen Pharmaceutica, N.V., priority 2001, dated 2008)
